Assay results as given in PubChem BioAssay (NCI).
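Following 48 hours of exposure in 96-well plates, responses at five concentrations were used to interpolate endpoints linearly. Here, GI50 denotes the concentration required for 50% inhibition of growth. The concentration for full growth arrest is given as TGI.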

Legend:
Assay in all cases: DTP human tumour cell line panel, 48 h
[1] = test system: A498 renal
[2] = test system: CAKI-1 renal
[3] = test system: HOP-62 NSCLC
[4] = test system: HS 578T breast
[5] = test system: MCF7 breast
[6] = test system: OVCAR-8 ovarian
[7] = test system: SK-MEL-2 melanoma
[8] = test system: SN12C renal
[9] = test system: UACC-257 melanoma
[10] = test system: UO-31 renal

SMILES	GI50 [1] [µM]	TGI [1] [µM]	GI50 [2] [µM]	TGI [2] [µM]	GI50 [3] [µM]	TGI [3] [µM]	GI50 [4] [µM]	TGI [4] [µM]	GI50 [5] [µM]	TGI [5] [µM]	GI50 [6] [µM]	TGI [6] [µM]	GI50 [7] [µM]	TGI [7] [µM]	GI50 [8] [µM]	TGI [8] [µM]	GI50 [9] [µM]	TGI [9] [µM]	GI50 [10] [µM]	TGI [10] [µM]
COc1ccc(NC(=O)c2cccc(C3CCc4c(cc(OC)c(OC)c4OC)O3)c2)cc1 (stereo unspecified)	1.37	5.7	3.49	> 100	2.86	> 100	2.69	> 100	3.11	> 100	3.1	> 100	2.95	8.79	3.7	> 100	3.72	> 100	2.36	> 100
CCCCC[C@H]1C/C=C2/C(=O)C(Cl)=C[C@@H]2C/C=C\CCCC(=O)O1	0.546	1.46	–	–	0.53	1.15	1.1	25	0.0886	2.7	0.328	1.65	0.439	1.13	0.333	0.905	0.513	1.41	0.379	0.717
CCOC(=O)c1ccc(NC(=O)c2cccc(NC3=C(Cl)C(=O)N(Cc4ccccc4)C3=O)c2)cc1	> 100	> 100	> 100	> 100	> 100	> 100	> 100	> 100	51.3	> 100	> 100	> 100	> 100	> 100	> 100	> 100	> 100	> 100	–	–
O=C(CC1Sc2ccccc2NC1=O)NNc1ccc(F)cc1 (stereo unspecified)	83.5	> 100	42.5	> 100	66.3	> 100	72.4	> 100	52	> 100	9.78	> 100	72.9	> 100	22.1	> 100	–	–	7.47	> 100
CCOC(=O)c1cc2c(n1Cc1ccccc1OC)-c1oncc1CCC2	3.46	> 100	3.51	> 100	1.89	9.9	3.38	> 100	0.716	> 100	3.85	> 100	–	–	> 100	> 100	–	–	6.53	> 100
CCOC(=O)CCSC1=CC(=O)c2nc3ccccc3c3ccnc1c23	> 100	> 100	16.3	31.9	16.4	47.7	32.8	> 100	13.3	38.3	–	–	26.8	72.8	15.7	31.8	14.6	35.7	16.3	34.9
CC(=O)c1ccc(Oc2c3ccccc3nc3occc23)cc1	28.1	80.6	–	–	> 100	> 100	12.4	75.5	4.08	> 100	3.33	> 100	> 100	> 100	–	–	4.85	> 100	60.5	> 100
O=C(Nc1ccc(Cl)cc1)N1CCN(c2ccc3nncn3n2)CC1	11.2	96.6	30.3	> 100	> 100	> 100	> 100	> 100	35.3	> 100	69.7	> 100	65.4	> 100	72.4	> 100	–	–	24.9	> 100
CC(=O)/C=C/c1ccc(N(CCO)Cc2ccc(C(C)(C)C)cc2)cc1	113	236	–	–	104	231	80	297	26.5	118	62.9	210	96.7	233	38.7	157	78.1	217	22.5	122
C=C1C(=O)O[C@H]2[C@H]1CC/C(COC(=O)N[C@H](Cc1c[nH]c3ccccc13)C(=O)OC)=C\CC[C@@]1(C)O[C@@H]21	10.9	22.9	–	–	12.5	28.5	12.6	44.2	1.24	2.99	2.8	9.13	7.21	23.8	2.08	5.69	2.89	8.74	1.49	2.84
C=CCN1C(=O)[C@]2(SC1=S)[C@H](c1cccc(Cl)c1)CN(C)[C@]21C(=O)NC2C=CC(Cl)=C[C@H]21 (stereo partly specified)	2.7	7.48	–	–	3.59	16.2	3.6	21.2	2.68	11.7	4.22	17.3	8.13	24.2	1.81	3.77	12.2	35.8	1.85	9.06
